Earlier results, collected in article PMC3473115 (Accounts of chemical research, 2012).

Tested on: HIV-1 gp41
Conditions: read-out: CCF IC50; cell-cell fusion assay

In the case of H2N-Trp-[Trp]-Leu-OH [compound 5], the IC50 is given as 5 µM.
